Source: patent publication US8420608B2, “Active substance combinations with insecticides and acaricide properties” (Bayer Cropscience AG, priority 2008, dated 2013)

Legend:
Assay type in all cases: in vivo
Myzus persicae = Myzus persicae test (spray on infested cabbage leaves)
From the text: (§1) The expected action for a given combination of two active compounds can be calculated as follows, according to S. R. Colby, Weeds 15 (1967), 20-22:
(§2) If • X is the kill rate, expressed as a percentage of the untreated control, when employing active compound A at an application rate of m g/ha or in a concentration of m ppm, • Y is the kill rate, expressed as a percentage of the untreated control, when employing active compound B at an application rate of n g/ha or in a concentration of n ppm and • E is the kill rate, expressed as a percentage of the untreated control, when employing active compounds A and B at application rates of m and n g/ha or in a concentration of m and n ppm, then
(§3) If the actual insecticidal kill rate exceeds the calculated value, the kill of the combination is superadditive, i.e. a synergistic effect is present. In this case, the actually observed kill rate must exceed the value calculated using the above formula for the expected kill rate (E).
(§4) To produce a suitable preparation of active compound, 1 part by weight of active compound is mixed with the stated amounts of solvents and emulsifier, and the concentrate is diluted with emulsifier-containing water to the desired concentration.
Cabbage leaves (Brassica oleracea) which are heavily infested by the green peach aphid (Myzus persicae) are treated by spraying with the active compound preparation of the desired concentration.
After the desired period of time, the kill in % is determined. 100% means that all aphids have been killed; 0% means that none of the aphids have been killed. The kill rates determined are entered into Colby's formula.

Spodoptera frugiperda = Spodoptera frugiperda larvae test (sprayed cabbage leaves)
From the text: as §1, §2, §3, §4
Cabbage leaves (Brassica oleracea) are treated by spraying with the active compound preparation of the desired concentration and are populated with larvae of the army worm (Spodoptera frugiperda) while the leaves are still moist.
After the desired period of time, the kill in % is determined. 100% means that all caterpillars have been killed; 0% means that none of the caterpillars have been killed. The kill rates determined are entered into Colby's formula.

Tetranychus urticae = experiment: Tetranychus test (OP-resistant/spray treatment)
From the text: as §1, §2, §3
To produce a suitable preparation of active compound, 1 part by weight of active compound is mixed with the stated amounts of solvents and emulsifier, and the concentrate is diluted with emulsifier-containing water to the desired concentration. […]
After the desired period of time, the activity in % is determined. […]

Phaedon cochleariae = Phaedon cochleariae larvae test (sprayed cabbage leaves)
From the text: as §1, §2, §3, §4
Cabbage leaves (Brassica oleracea) are treated by spraying with the active compound preparation of the desired concentration and are populated with larvae of the mustard beetle (Phaedon cochleariae) while the leaves are still moist.
After the desired period of time, the kill in % is determined. 100% means that all beetle larvae have been killed; 0% means that none of the beetle larvae have been killed. The kill rates determined are entered into Colby's formula.

Cc1cc(C)c(C2=C(OC(=O)CC(C)(C)C)C3(CCCC3)OC2=O)c(C)c1 [spiromesifen]
Kill in % after 6d (Myzus persicae; 100 g/ha): 50%
Kill in % after 6d (Spodoptera frugiperda; 0.8 g/ha): 0%
Kill in % after 2d (Tetranychus urticae; 4 g/ha): 0%
Kill in % after 6d (Phaedon cochleariae; 4 g/ha): 0%

CCOC(=O)OC1=C(c2cc(C)ccc2C)C(=O)N[C@]12CC[C@@H](OC)CC2 [spirotetramat]
Kill in % after 6d (Myzus persicae; 0.8 g/ha): 0%
Kill in % after 6d (Spodoptera frugiperda; 0.8 g/ha): 0%
Kill in % after 2d (Phaedon cochleariae; 20 g/ha): 0%

spinetoram
Kill in % after 6d (Myzus persicae; 0.16 g/ha): 0%
Kill in % after 6d (Myzus persicae; 20 g/ha): 0%
Kill in % after 6d (Spodoptera frugiperda; 0.16 g/ha): 83%
Kill in % after 2d (Tetranychus urticae; 0.8 g/ha): 0%
Kill in % after 6d (Phaedon cochleariae; 0.8 g/ha): 50%
Kill in % after 2d (Phaedon cochleariae; 4 g/ha): 50%

CCC(C)(C)C(=O)OC1=C(c2ccc(Cl)cc2Cl)C(=O)OC12CCCCC2 [spirodiclofen]
Kill in % after 6d (Spodoptera frugiperda; 0.8 g/ha): 0%
